Values after ≈ are worked out from the molar mass of the structure shown. “Also recorded” adds a separate entry of the source. Like-named read-outs stand apart in the source and are kept apart here.
Legend:
[1] = system: opioid receptors of the guinea pig ileum; format: cell-based; details: for inhibition of electrically induced contractions / antagonism by naloxone / opioid (opiate-like) activity in vitro: words; for antagonism by naloxone: naloxone 0.5, 5 and 50 ng/ml (eseroline) or 5 and 50 ng/ml; for enhancement of electrically induced contractions / excitatory stage: eseroline above 400 ng/ml in presence of naloxone; for evidence of cholinesterase inhibition on the ileum: inferred from enhancement of contractions; for opioid (opiate-like) activity in vitro: isolated tissue preparations; for log dose ratio (±S.D.), shift by naloxone, ileum: mean of not less than 6 determinations
Method: Sections of guinea-pig ileum were set up for transmural stimulation under a resting tension of 0.75 g in Krebs solution bubbled with 5% carbon dioxide in oxygen at 37 degrees C according to the method of Kosterlitz and Watt (1968) Contractions were elicited from stainless steel electrodes, one of which was sited in the lumen at supramaximal voltage and a frequency of 0.05 Hz. Isometric contractions were recorded on a Rikadenki recorder. Potential agonists were added directly to the bath and the contact time was until maximum inhibition had occurred. The responses of the preparation in the presence of naloxone were examined with the naloxone present in the physiological solution. Results were expressed as percent inhibition. In each experiment a log dose effect relationship was determined using at least four concentrations in the absence of antagonist, and then in the presence of one or more concentrations of naloxone.
(§1) Eseroline was dissolved in minimal 0.1N hydrophloric acid and dilutions made with water. Salts were dissolved in water.

[2] = relative to morphine; cited from earlier work
cholinesterase = details: cited from earlier work
[3] = system: opioid receptors of the mouse vas deferens; format: cell-based; details: for log dose ratio (±S.D.), shift by naloxone, vas deferens: mean of not less than 6 determinations
Method: Vasa deferentia were removed and mounted in 1.2 ml tissue baths under a resting tension of 200 mg in Mg^2+ -free Krebs solution bubbled with a mixture of 95% oxygen and 5% carbon dioxide at 36 degrees C. The preparations were left for 1 hour to equilibriate. Contractions were elicited from platinum electrodes fused to the sides of the tissue bath using supramaximal voltage (usually above 100 V), a pulse width of lms and a frequency of 0.1 Hz. Isometric contractions were recorded on a Grass polygraph. As with the ileum, concentration effect relationships were determined in the absence then presence of naloxone.
as §1
The values are derived from individual comparisons of the percentage inhibition of the preparations in the presence of a concentration of naloxone and that in the same preparation in the absence of naloxone.

mice [4] = experiment: animal or person; format: in vivo, mouse; details: for ED50: Mus musculus, read-out: ED50 Hot Plate; for antagonism of analgesia by naloxone: analgesic tests (Hot Plate and Abdominal Constriction)
Method: (§2) Analgesic activity was assessed using two methods in mice--the Hot Plate Test and the Abdominal Constriction Test (acetic acid). The test drug was given by subcutaneous injection and the results expressed as ED50 with 95% confidence intervals.
(§3) ED50 and 95% confidence intervals.
(§4) mg/kg, subcutaneous injection.

mice [5] = experiment: animal or person; format: in vivo; details: Mus musculus, sc, subcutaneous injection, 95% confidence intervals, read-out: ED50 Abdominal Constriction (Acetic acid)
Method: as §2, §3, §4

[6] = system: cholinesterase (guinea pig ileum as the enzyme source); experiment: Anticholinesterase Test (method of Ellman, Courtney et al.); format: biochemical; details: concentrations up to 6.4 ug/ml where stated
Method: Anticholinesterase activity was assessed using the method of Ellman, Courtney et al., (1961) using guinea pig ileum as the enzyme source.

[7] = Naloxone 10 ng/ml (so in the source)

SMILES	inhibition of electrically induced contractions ([1]; guinea pig ileum)	antagonism by naloxone ([1]; guinea pig ileum)	enhancement of electrically induced contractions / excitatory stage ([1]; guinea pig ileum)	evidence of cholinesterase inhibition on the ileum [1]	opioid (opiate-like) activity in vitro [1]	receptor selectivity / receptor population compared with morphine [1]	antagonism of analgesia by naloxone (mice [4]; mice)	antagonist activity against morphine [1]	other results
CN1CCC2(C)c3cc(O)ccc3N(C)C12 (single isomer, unassigned) [eseroline, reference compound]	concentration-dependent inhibition of contractions	antagonised by naloxone in a concentration-dependent manner	enhanced electrically-induced contractions of the muscle	evidence for anti-cholinesterase activity was also seen	has opiate activity	–	–	–	maximum inhibition of electrically induced contractions ([1]; guinea pig ileum): about 50%; analgesic properties [2]: approximately equipotent with morphine; anticholinesterase activity (cholinesterase): retains undesirable anticholinesterase activity
CN1CCC23CCCCC12N(C)c1ccc(O)cc13 (racemic) [6-hydroxy-9,10-dimethyl-echiboline, 1,2,3,4-tetrahydro-6-hydroxy-9,10-dimethyl-9a,4a-(iminoethano)-9H-carbazole]	similarly inhibited the electrically-induced contractions	antagonised by naloxone in a concentration-dependent manner	at no stage was an excitatory stage seen; also recorded: No enhancement of contractions was seen	no evidence of cholinesterase inhibition	possessed opiate-like activity	differs from that of morphine	antagonised by naloxone	–	log dose ratio (±S.D.), shift by naloxone, ileum ([1]; Naloxone 5 ng/ml): 0.91 (+0.27); log dose ratio (±S.D.), shift by naloxone, ileum [1, 7]: 1.54 (+0.22); EC50 (±SD) Guinea-pig ileum ([1]; Table 1, mean of not less than 12 determinations, S.D. range on next line): 0.0335 µg/mL (≈ 0.13 µM); inhibition, some individual values ([1]; guinea pig ileum, individual values): over 90%; antagonism by naloxone compared with morphine [3]: some ten times less effective as an antagonist than against morphine; log dose ratio (±S.D.), shift by naloxone, vas deferens [3, 7]: 0.87 (+0.19); log dose ratio (±S.D.), shift by naloxone, vas deferens ([3]; Naloxone 500 ng/ml): 1.66 (+0.13); ED50 (mice [4]; sc, mice, subcutaneous injection, 95% confidence intervals): 1.71 mg/kg; potency relative to morphine in mice (mice [4]; mouse, in vivo, sc): somewhat greater than that predicted from the in vitro tests; ED50 (mice [5]): 0.23 mg/kg; anti-cholinesterase inhibitory activity [6]: no evidence of cholinesterase inhibitory activity; anti-cholinesterase inhibitory activity ([6]; listed as echiboline derivative): no detectable anti-cholinesterase inhibitory activity
CN1CC[C@]23c4c5ccc(O)c4O[C@H]2[C@@H](O)C=C[C@H]3[C@H]1C5 [morphine, reference compound]	familiar inhibition of the preparation	naloxone antagonism was confirmed	–	–	–	–	–	–	times more potent than (±)-6-hydroxy-9,10-dimethyl-echiboline ([1]; guinea pig ileum, from EC50 values): 2.8 times; times more potent than (±)-6-hydroxy-9,10-dimethyl-echiboline ([3]; mouse vas deferens, from EC50 values): 3.6 times; ED50 (mice [4]; sc): 3.22 mg/kg
C=CCN1CC[C@]23c4c5ccc(O)c4O[C@H]2C(=O)CC[C@@]3(O)[C@H]1C5 [Naloxone, naloxone, reference compound]	–	–	–	–	–	–	effective antagonist	–	–
C=CCN1CCC23CCCCC12N(C)c1ccc(O)cc13 (racemic) [6-Hydroxy-9-methyl-10-allyl-echiboline, 1,2,3,4-tetrahydro-6-hydroxy-9-methyl-10-allyl-9a,4a-(iminoethano)-9H-carbazole]	–	antagonized by naloxone; also recorded: relative lack of potency of naloxone as an antagonist	–	–	possesses opioid agonist activity in vitro	interaction with a different receptor population than that with which morphine interacts; also recorded: likely to be the "kappa" receptor	–	no antagonist activity against morphine	IC50, inhibition of contractions of the ileum [1]: 0.3 µg/mL; potency relative to morphine [1]: about ten times less potent than morphine
CN1c2ccc(O)cc2C23CCCCC12N(CC1CC1)CC3 (racemic) [1,2,3,4-tetrahydro-6-hydroxy-9-methyl-10-cyclopropylmethyl-9a,4a-(iminoethano)-9H-carbazole]	inhibited the contractions of the ileum, but was of weaker potency	Naloxone had little antagonist activity	–	–	–	–	–	no detectable antagonist activity against morphine	–

Source: patent US4996223A, “New organic compounds having opioid properties” (priority 1986, dated 1991)
